Laboratory results published in PMC2714839, “Evidence for a role of NTS2 receptors in the modulation of tonic pain sensitivity” (Molecular Pain, 2009).
Values joined by “and” are separate entries in the source; they are usually repeats but may differ in a detail not shown here. Equal values may be shown once. Read-outs that look alike come from different tables or passages of the source. Non-standard residues stand in square brackets, D forms with d. Residues, ends and D or L forms follow the SMILES beside them. Ala(indol-4-yl) = N[C@@H](Cc1cccc2[nH]ccc12)C(=O)O; NMeR = CN[C@@H](CCCNC(=N)N)C(=O)O; Tle = CC(C)(C)[C@H](N)C(=O)O

Key:
[1] = biological target: T1, rNTS1 (Rattus norvegicus, UniProt P20789); assay: Competition binding of [3H]-NT to HEK293 cell membranes expressing rNTS1
T1 construct: expressed in transfected cells; membrane homogenates
Procedure: (§1) Cells were fed every 2 days with 20 ml of medium. 70–80% confluent HEK 293 cells were washed twice with phosphate-buffered saline solution, scraped into 50 mM Tris-HCl (pH 7.4) buffer containing 1 mM EDTA and 250 mM sucrose and centrifuged at 15,000 g for 12 min at 4°C. Pellets were then re-suspended in hypotonic TE buffer (50 mM Tris-HCl (pH 7.4) buffer containing 1 mM EDTA) and membrane homogenates were recovered by centrifugation for 30 min at 4°C. The final protein concentration was determined with the use of the BCA assay kit (Pierce Biotechnology Inc, Rockford, IL).
(§2) Binding was terminated by two successive additions of 3 ml of ice-cold buffer and filtering under vacuum through GF/B filters presoaked in binding buffer containing 0.2% polyethyleneimine (48-well Brandel Harvester). Filters were placed in scintillation vials containing 5 ml scintillation liquid (Ecolite) and then counted in a beta counter.

[2] = biological target: T2, rNTS2 (Rattus norvegicus, UniProt Q63384); assay: Competition binding of [3H]-NT to HEK293 cell membranes expressing rNTS2
T2 construct: expressed in transfected cells; membrane homogenates
T2 sequence (Q63384 1-416): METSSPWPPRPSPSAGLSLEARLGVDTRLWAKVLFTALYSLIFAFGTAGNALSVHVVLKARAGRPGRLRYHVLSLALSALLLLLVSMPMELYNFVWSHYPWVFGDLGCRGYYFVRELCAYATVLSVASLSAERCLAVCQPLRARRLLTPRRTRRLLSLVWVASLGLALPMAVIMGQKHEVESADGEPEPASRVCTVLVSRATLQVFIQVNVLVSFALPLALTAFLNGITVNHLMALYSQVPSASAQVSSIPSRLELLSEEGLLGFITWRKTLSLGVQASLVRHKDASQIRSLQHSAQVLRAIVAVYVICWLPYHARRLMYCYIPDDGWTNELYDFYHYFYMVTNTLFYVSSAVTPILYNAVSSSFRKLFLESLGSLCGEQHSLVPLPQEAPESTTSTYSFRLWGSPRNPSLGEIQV
Procedure: as §1, §2

[3] = system: formalin-induced nociceptive behaviors; assay: Formalin test, weighted pain score (A.U.C.) after intrathecal pretreatment; type: in vivo; conditions: rat, i.t. 5 μg/kg; for reduction of pain behaviors in the tonic phase (phase 2, 21-60 min, A.U.C.) vs vehicle: 5 min before formalin
Procedure: Experiments were performed with adult male Sprague-Dawley rats (250–300 g; Charles River, St-Constant, QC, Canada) kept on a 12 h light/dark cycle and allowed ad libitum access to food and water. Animals were individually acclimatized to Plexiglas enclosures for 3 consecutive days prior to testing. The formalin test was always performed by three different experimenters in a quiet room and between 08.00 AM and 12.00 PM to reduce any variation related to circadian rhythm.
Antinociception was assessed using the formalin test as a model of persistent pain. For this purpose, rats were placed for a 60-min habituation period in the experimentation room. Thereafter, rats received a 50 μl subcutaneous injection of diluted 2% formaldehyde (i.e. 5% formalin, Fisher Scientific, Montreal, QC, Canada) into the plantar surface of the right hind paw.
Following this, the rats were placed in clear plastic chambers (30 × 30 × 30 cm) positioned over a mirror angled at 45°, in order to allow an unobstructed view of the paws, and their behaviors were recorded for the next 60 min. […] Nocifensive behaviors were assessed using a weighed score as described previously [43, 44]. […] The weighted nociceptive score, ranging from 0 to 3, is calculated by multiplying the time spent in each category by its assigned weight category, summing these products and dividing by the total time for each 3 min block of time. The total area under the curve (A.U.C.) for the inflammatory phase (phase 2) was calculated between 21 to 60 min for each animal. Phase 2 was further subdivided in early (21–39 min) and late (40–60) phases and analyzed as separate events [45]. […] The cumulative time spent in both lifting (state 2) and flinching/licking/biting (state 3), reflecting behavioral reactions integrated at different CNS levels, were also determined during the inflammatory phase (21 to 60 min following formalin) [42].
Data are presented as means ± standard errors of the mean (S.E.M.). All calculations and statistical analysis were performed using Prism 4.0 and Instat 3.05 (Graph Pad Software, San Diego, CA, USA). Nociceptive scores over the 3 min time blocks were analyzed using a two-way analysis of variance for repeated measures, with comparisons between experimental groups and the control group at each time interval using Bonferroni's post hoc t-test. A one-way ANOVA followed by Dunnett's post hoc t-test was used to determine the significance of differences in the A.U.C. and in the time spent in states 2 and 3. A difference in responses between groups was considered significant with P values; * P < 0.05 and ** P < 0.01.

[4] = system: formalin-induced nociceptive behaviors; assay: Formalin test, cumulative time in stereotypic behaviors (lifting; flinching/licking/biting); type: in vivo; conditions: rat
Procedure: Experiments were performed with adult male Sprague-Dawley rats (250–300 g; Charles River, St-Constant, QC, Canada) kept on a 12 h light/dark cycle and allowed ad libitum access to food and water. Animals were individually acclimatized to Plexiglas enclosures for 3 consecutive days prior to testing. The formalin test was always performed by […] in a quiet room and between 08.00 AM and 12.00 PM to reduce any variation related to circadian rhythm. The experimental procedures in this study were approved by the Animal Care Committee of the University of Sherbrooke and were in accordance with policies and directives of the Canadian Council on Animal Care.
Behavioral experiments aimed at establishing the effects of NT analogs and NTS2-selective agonists on formalin-induced nocifensive behaviors. To this end, rats were lightly anesthetized with isoflurane (Abbott Laboratories, Montreal, QC, Canada) and injected intrathecally, at the L5-L6 intervertebral space, with either NT (6 μg/kg), NT69L (5 μg/kg), JMV-431 (5 to 60 μg/kg), or levocabastine (0.5 and 5 μg/kg) diluted in 30 μl of physiological saline (0.9% NaCl), 5 min before formalin administration. Control animals received physiological saline.
Antinociception was assessed using the formalin test as a model of persistent pain. […]
Following this, the rats were placed in clear plastic chambers (30 × 30 × 30 cm) positioned over a mirror angled at 45°, in order to allow an unobstructed view of the paws, and their behaviors were recorded for the next 60 min. […] Nocifensive behaviors were assessed using a weighed score as described previously. […] The weighted nociceptive score, ranging from 0 to 3, is calculated by multiplying the time spent in each category by its assigned weight category, summing these products and dividing by the total time for each 3 min block of time. The total area under the curve (A.U.C.) for the inflammatory phase (phase 2) was calculated between 21 to 60 min for each animal. Phase 2 was further subdivided in early (21–39 min) and late (40–60) phases and analyzed as separate events. Formalin-induced pain related behavior may also be quantified by monitoring the number and the duration of episodes of different behavioral endpoints. The cumulative time spent in both lifting (state 2) and flinching/licking/biting (state 3), reflecting behavioral reactions integrated at different CNS levels, were also determined during the inflammatory phase (21 to 60 min following formalin).
Data are presented as means ± standard errors of the mean (S.E.M.). […] Nociceptive scores over the 3 min time blocks were analyzed using a two-way analysis of variance for repeated measures, with comparisons between experimental groups and the control group at each time interval using Bonferroni's post hoc t-test. […]

[5] = system: c-fos; assay: Formalin-evoked c-fos-like immunoreactivity in lumbar spinal cord (L4-L5); type: in vivo; conditions: rat
Procedure: At 45 min following formalin injection, rats were deeply anesthetized and perfused intraaortically with ice-cold 4% paraformaldehyde (Fisher Scientific, Montreal, QC, Canada) in 0.1 M PB, pH 7.4. The spinal cord was isolated and then cryoprotected overnight at 4°C in 30% sucrose in phosphate-buffered saline (PBS). Prior to tissue sectioning, an incision was made in the ventral horn of the contralateral side to allow spatial positioning of the spinal cord for further analysis. Transverse frozen sections (35-μm-thick) were then cut from the lumbar segment (L4-L5) of the spinal cord with a sliding microtome and processed by a free-floating slice immunohistochemistry procedure. After elimination of endogenous peroxidase activity with 0.3% hydrogen peroxide in PBS for 1 h, the tissue sections were rinsed three times in PBS and incubated for 1 h at RT in a blocking solution of 3% normal goat serum (NGS) and 0.3% Triton X-100 in PBS. After washing, free-floating sections were incubated overnight at RT with the rabbit anti-c-fos polyclonal antibody diluted 1:1000 in PBS (sc-52, Santa Cruz Biotechnology, Santa Cruz, CA, USA), containing 1% NGS and 0.3% Triton X-100. The tissue was then washed three times in PBS and transferred to a goat anti-rabbit biotinylated secondary IgG complex (1:200 in 1% NGS and 0.3% Triton X-100 in PBS; Vector, Burlingame, CA, USA) for 1 h at RT followed by exposing to avidin-biotin horseradish peroxydase complex (1:100; Vectastain ABC-Elite kit, Vector Laboratories, Burlington, ON, Canada) for 1 h at RT. After the final wash with PBS, the chromagen was developed using nickel intensified 3,3'-diaminobenzidine (DAB, 0.01%) and 0.3% H2O2. Finally, the sections were thoroughly rinsed with PBS, mounted onto slides, dehydrated in a series of graded alcohols, defatted in xylene, and placed on coverslips.
Sections were visually scanned and photographed using a bright-field microscope (Leica DM4000B; Leica Microsystems, Toronto, Canada). The individual sections were printed and overlaid with an acetate sheet on which the distribution of c-fos immunoreactive neurons was then plotted. […] For the quantification of c-fos labeled neurons, each section of the spinal cord was divided into four regions of interest: the superficial laminae (laminae I, IIo and IIi), the nucleus proprius (laminae III and IV), the neck of the dorsal horn (laminae V and VI) and the deep lamina X according to the cytoarchitectonic organization of the spinal cord. The number of c-fos immunoreactive neurons in the four defined regions was determined by averaging the counts made in 10–15 sections and expressed as mean ± S.E.M. of these values for all the rats in that treatment group for statistical analysis of the different experimental conditions. […] A Dunnett's t-test was applied to assess differences between the drug and vehicle groups. A value of P < 0.05 was considered statistically significant.

[6] = i.t. 5 μg/kg, 45 min after formalin

T1 sequence (P20789 whole entry): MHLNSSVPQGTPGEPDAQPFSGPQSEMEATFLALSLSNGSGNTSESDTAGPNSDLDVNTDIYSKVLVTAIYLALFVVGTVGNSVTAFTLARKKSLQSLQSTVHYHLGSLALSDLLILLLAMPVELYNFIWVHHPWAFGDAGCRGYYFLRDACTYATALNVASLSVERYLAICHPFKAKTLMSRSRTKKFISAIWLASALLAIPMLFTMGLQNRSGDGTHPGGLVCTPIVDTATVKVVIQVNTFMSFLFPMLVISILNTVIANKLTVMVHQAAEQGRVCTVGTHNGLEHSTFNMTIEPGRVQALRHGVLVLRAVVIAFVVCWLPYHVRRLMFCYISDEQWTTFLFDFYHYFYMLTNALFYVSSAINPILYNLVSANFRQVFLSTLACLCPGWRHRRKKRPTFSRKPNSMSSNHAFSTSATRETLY

SMILES	IC50 [1] [nM]	IC50 ([2]; IC50 rNTS2) [nM]	IC50 ([1]; read-out: IC50 rNTS1) [nM]	IC50 ([2]; inhibition of 2 nM [3H]-NT binding, HEK293 cell membranes expressing rat NTS2, read-out: IC50 rNTS2)	decrease in A.U.C. in early phase 2 (21-39 min) [3]	decrease in A.U.C. in late phase 2 (40-60 min) [3]	reduction of pain behaviors in the tonic phase (phase 2, 21-60 min, A.U.C.) vs vehicle [3] [%]	effect on formalin-evoked licking/shaking/biting behaviors, phase 2 ([4]; i.t., all doses tested)	inhibition of cumulative time spent in lifting, phase 2 (21-60 min) ([4]; i.t., maximum reached over the doses tested (JMV-431 5-60 μg/kg, levocabastine 0.5-5 μg/kg)) [%]	reduction of contralateral c-fos immunoreactivity, lamina X [5, 6] [%]	reduction of contralateral c-fos immunoreactivity, laminae I-II [5, 6] [%]	reduction of contralateral c-fos immunoreactivity, laminae III-IV [5, 6] [%]	reduction of contralateral c-fos immunoreactivity, laminae V-VI [5, 6] [%]	reduction of number of c-fos-LI neurons, ipsilateral laminae I-II [5, 6] [%]	reduction of number of c-fos-LI neurons, ipsilateral laminae III-IV [5, 6] [%]	reduction of number of c-fos-LI neurons, ipsilateral laminae V-VI [5, 6] [%]	reduction of number of c-fos-LI neurons, ipsilateral laminae X [5, 6] [%]	reduction of lifting time during the tonic phase ([4]; i.t. NT69L 5 μg/kg) [%]	attenuation of flinching, licking and biting responses (maximum antagonism) ([4]; i.t. NT69L 5 μg/kg, tonic phase) [%]	effect on spinal nociceptive neuronal responses (c-fos) induced by formalin ([5]; data not shown)
CC[C@H](C)[C@H](NC[C@H](Cc1ccc(O)cc1)NC(=O)[C@@H]1CCCN1C(=O)[C@H](CCCNC(=N)N)NC(=O)[C@H](CCCNC(=N)N)NC(=O)OC(C)(C)C)C(=O)N[C@@H](CC(C)C)C(=O)O [JMV-431, Boc-Arg-ArgPro-Tyrø(CH2NH)-Ile-Leu-OH]	4740 ± 135	19 ± 3.2																		
C[C@@H]1CN([C@H]2CC[C@](C#N)(c3ccc(F)cc3)CC2)CC[C@]1(C(=O)O)c1ccccc1 [Levocabastine, levocabastine]			> 10000	3 nM and 2.7 nM	no effect	48 ± 16%	29 ± 5	do not reverse	73 ± 5	98 ± 1	74 ± 7	72 ± 7	77 ± 5	26 ± 7	60 ± 5	53 ± 3	56 ± 8			
CN[C@@H](CCCNC(=N)N)C(=O)N[C@@H](CCCCN)C(=O)N1CCC[C@H]1C(=O)N[C@@H](Cc1cccc2[nH]ccc12)C(=O)N[C@H](C(=O)N[C@@H](CC(C)C)C(=O)O)C(C)(C)C [NT69L, N-methyl-Arg-Lys-Pro-L-neo-Trp-tert-Leu-Leu-OH] (H-[NMeR]KP[Ala(indol-4-yl)][Tle]L-OH; N-terminus assumed)	2.2 ± 0.5	3.7 ± 0.4			70 ± 13%	48% ± 19	59 ± 13											74 ± 13	70 ± 15	attenuated
